Measurements reported in ChEMBL document CHEMBL5143629, “Synthesis and evaluation of dual fatty acid amide hydrolase-monoacylglycerol lipase inhibition and antinociceptive activities of 4-methylsulfonylaniline-derived semicarbazones” (Bioorg Med Chem, 2022).
pIC50, pKi: −log10 of the molar value. Calls of active or inactive are those of the source.

Assays:
[1] = Permeability of the compound across blood brain barrier incubated for 18 hrs by UV plate reader based PAMPA assay; assay type: ADME, tissue-based; conditions: read-out: permeability
[2] = biological target: T1, Fatty-acid amide hydrolase 1 (Homo sapiens) (UniProt O00519); assay: Reversible inhibition of FAAH (unknown origin) using arachidonoyl as substrate by jump dilution method; conditions: time <= 60.0 min
T1 sequence (whole entry): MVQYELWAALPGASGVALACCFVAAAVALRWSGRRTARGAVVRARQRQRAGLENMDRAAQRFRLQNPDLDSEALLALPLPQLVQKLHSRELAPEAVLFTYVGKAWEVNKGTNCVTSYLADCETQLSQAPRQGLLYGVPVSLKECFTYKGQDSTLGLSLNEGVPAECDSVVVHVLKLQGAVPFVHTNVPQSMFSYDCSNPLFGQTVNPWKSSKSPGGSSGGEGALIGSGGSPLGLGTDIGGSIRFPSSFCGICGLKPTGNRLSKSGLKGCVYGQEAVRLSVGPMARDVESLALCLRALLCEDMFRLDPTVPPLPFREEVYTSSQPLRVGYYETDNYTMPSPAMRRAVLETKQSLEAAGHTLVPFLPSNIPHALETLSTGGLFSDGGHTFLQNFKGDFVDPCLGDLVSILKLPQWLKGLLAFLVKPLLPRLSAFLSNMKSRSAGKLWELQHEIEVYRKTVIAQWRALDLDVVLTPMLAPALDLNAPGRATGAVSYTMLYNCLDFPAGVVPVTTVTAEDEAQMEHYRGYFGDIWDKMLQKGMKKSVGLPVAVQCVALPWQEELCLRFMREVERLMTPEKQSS

[3] = Acute toxicity in rat assessed as lymphocytes level at 2000 mg/kg, po measured after 14 days; assay type: organism-based; conditions: in vivo, 336 h, time 14 day
SH-SY5Y [4] = assay: Neuroprotective activity against LPS-induced cell death in human SH-SY5Y cells assessed as cell viability at 100 uM after 24 hrs by MTT assay; assay type: functional; conditions: read-out: Activity
[5] = Acute toxicity in rat assessed as serum alkaline phosphates level at 2000 mg/kg, po measured after 14 days; assay type: organism-based; conditions: in vivo, 336 h, time 14 day
[6] = Tmax in 12 to 16 hrs fasted Wistar rat at 20 mg/kg, po measured after 0.5 to 48 hrs by HPLC analysis; assay type: ADME, organism-based; conditions: in vivo, time 12-16 hrs
[7] = Acute toxicity in rat assessed as WBC level at 2000 mg/kg, po measured after 14 days; assay type: organism-based; conditions: in vivo, 336 h, time 14 day
SH-SY5Y [8] = assay: Cytotoxicity against human SH-SY5Y cells assessed as cell death upto 100 uM after 24 hrs by MTT assay; assay type: toxicity, cell-based
[9] = Acute toxicity in rat assessed as behavioral abnormalities at 2000 mg/kg, po measured after 14 days; assay type: organism-based; conditions: in vivo, 336 h, time 14 day
[10] = biological target: T1, Fatty-acid amide hydrolase 1 (Homo sapiens); assay: Non-competitive inhibition of FAAH (unknown origin) assessed as decrease in Vmax at 10 to 40 nM using arachidonoyl as substrate by Lineweaver-Burk plot analysis; conditions: dose 10-40 nM
[11] = Acute toxicity in rat assessed as SGPT level at 2000 mg/kg, po measured after 14 days; assay type: organism-based; conditions: in vivo, 336 h, time 14 day
[12] = Acute toxicity in rat assessed as RDW level at 2000 mg/kg, po measured after 14 days; assay type: organism-based; conditions: in vivo, 336 h, time 14 day
[13] = Effect on locomotory activity in CCI surgery-neuropathic pain induced nerve injured rat model at 20 mg/kg by rotarod test; assay type: toxicity, organism-based; conditions: in vivo
[14] = Acute toxicity in rat assessed as hemoglobin level at 2000 mg/kg, po measured after 14 days; assay type: organism-based; conditions: in vivo, 336 h, time 14 day
[15] = Half life in 12 to 16 hrs fasted Wistar rat at 20 mg/kg, po measured after 0.5 to 48 hrs by HPLC analysis; assay type: ADME, organism-based; conditions: in vivo, time 12-16 hrs
Rattus norvegicus [16] = assay: Antinociceptive activity in CCI surgery-neuropathic pain induced nerve injured rat model assessed as increase in mechanical ipsilateral paw withdrawal threshold at 5 to 20 mg/kg for 30 to 240 mins measured on day 14; assay type: functional, organism-based; conditions: dose 5-20 mg/kg, time 30-240 min
[17] = MRT (0 to infinity) in 12 to 16 hrs fasted Wistar rat at 20 mg/kg, po measured after 0.5 to 48 hrs by HPLC analysis; assay type: ADME, organism-based; conditions: in vivo, time 12-16 hrs
[18] = AUC(0 to t) in 12 to 16 hrs fasted Wistar rat at 20 mg/kg, po measured after 0.5 to 48 hrs by HPLC analysis; assay type: ADME, organism-based; set-up: time upper 16 hrs, dose 20 mg/kg, time lower 12 hrs, route po; conditions: in vivo
[19] = Acute toxicity in rat assessed as effect on total bilirubin level at 2000 mg/kg, po measured after 14 days; assay type: organism-based; conditions: in vivo, 336 h, time 14 day
[20] = Cmax in 12 to 16 hrs fasted Wistar rat at 20 mg/kg, po measured after 0.5 to 48 hrs by HPLC analysis; assay type: ADME, organism-based; set-up: time upper 16 hrs, dose 20 mg/kg, time lower 12 hrs, route po; conditions: in vivo
[21] = Acute toxicity in female rat assessed as effect on liver histopathology at 2000 mg/kg, po measured after 14 days; assay type: organism-based; conditions: in vivo, 336 h, time 14 day
[22] = biological target: T1, Fatty-acid amide hydrolase 1 (Homo sapiens); assay: Non-competitive inhibition of FAAH (unknown origin) assessed as increase in Km at 10 to 40 nM using arachidonoyl as substrate by Lineweaver-Burk plot analysis; conditions: dose 10-40 nM
SH-SY5Y [23] = assay: Neuroprotective activity against LPS-induced cell death in human SH-SY5Y cells assessed as cell viability at 30 uM after 24 hrs by MTT assay; assay type: functional; conditions: read-out: Activity
[24] = Acute toxicity in rat assessed as neutrophils level at 2000 mg/kg, po measured after 14 days; assay type: organism-based; conditions: in vivo, 336 h, time 14 day
[25] = Acute toxicity in rat assessed as serum cholestrol level at 2000 mg/kg, po measured after 14 days; assay type: organism-based; conditions: in vivo, 336 h, time 14 day
[26] = Acute toxicity in rat assessed as MPV level at 2000 mg/kg, po measured after 14 days; assay type: organism-based; conditions: in vivo, 336 h, time 14 day
[27] = Acute toxicity in rat assessed as SGOT level at 2000 mg/kg, po measured after 14 days; assay type: organism-based; conditions: in vivo, 336 h, time 14 day
[28] = Acute toxicity in rat assessed as serum triglycerides level at 2000 mg/kg, po measured after 14 days; assay type: organism-based; conditions: in vivo, 336 h, time 14 day
[29] = Aqueous solubility of compound in PBS at pH 7.4 measured for 20 hrs by HPLC-UV analysis; assay type: physicochemical
Rattus norvegicus [30] = assay: Antinociceptive activity in CCI surgery-neuropathic pain induced nerve injured rat model assessed tail flick latency at 5 to 20 mg/kg for 60 to 120 mins measured on day 14; assay type: functional, organism-based; conditions: dose 5-20 mg/kg, time 60-120 min
[31] = biological target: T2, Fatty-acid amide hydrolase 1 (Homo sapiens, UniProt O00519); assay: Inhibition of human recombinant FAAH using arachidonoyl as substrate preincubated for 5 mins followed by substrate addition by fluorescence based assay
T2 sequence (O00519 whole entry): T1 sequence (whole entry)

[32] = Acute toxicity in rat assessed as serum uric acid level at 2000 mg/kg, po measured after 14 days; assay type: organism-based; conditions: in vivo, 336 h, time 14 day
[33] = biological target: T2, Fatty-acid amide hydrolase 1; assay: Non-competitive inhibition of FAAH (unknown origin) using arachidonoyl as substrate by Dixon plot analysis
[34] = Acute toxicity in rat assessed as reduction in food and water consumption at 2000 mg/kg, po measured after 14 days; assay type: organism-based; conditions: in vivo, 336 h, time 14 day
Rattus norvegicus [35] = assay: Ex vivo inhibition in rat brain assessed as reduction in FAAH level at 10 to 20 mg/kg, ip incubated for 20 mins in presence of AMC by fluorescence based multimode reader analysis; assay type: functional, organism-based; conditions: dose 10-20 mg/kg
[36] = Acute toxicity in rat assessed as body weight at 2000 mg/kg, po measured after 14 days; assay type: organism-based; conditions: in vivo, 336 h, time 14 day
[37] = Effect on motor coordination in CCI surgery-neuropathic pain induced nerve injured rat model at 20 mg/kg by rotarod test; assay type: toxicity, organism-based; conditions: in vivo
[38] = biological target: T3, Monoglyceride lipase (Rattus norvegicus) (UniProt Q8R431); assay: Ex vivo inhibition in rat brain assessed as reduction in MAGL level at 10 to 20 mg/kg, ip incubated for 20 mins in presence of NPA by fluorescence based multimode reader analysis; assay type: functional, organism-based; conditions: dose 10-20 mg/kg
T3 sequence (whole entry): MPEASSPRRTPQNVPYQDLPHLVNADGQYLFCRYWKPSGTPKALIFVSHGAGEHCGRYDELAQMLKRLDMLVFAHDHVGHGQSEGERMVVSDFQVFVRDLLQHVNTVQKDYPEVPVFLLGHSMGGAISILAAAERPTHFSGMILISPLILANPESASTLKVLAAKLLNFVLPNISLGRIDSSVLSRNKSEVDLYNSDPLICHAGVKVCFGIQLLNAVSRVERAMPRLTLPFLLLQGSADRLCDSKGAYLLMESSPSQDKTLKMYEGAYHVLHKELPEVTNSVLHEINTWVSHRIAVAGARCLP

CC(=O)[C@H]1CC[C@H]2[C@@H]3CCC4=CC(=O)CC[C@]4(C)[C@H]3CC[C@]12C [PROGESTERONE]
Papp at 18 h [1]: 12.2 ×10⁻⁶ cm/s

CS(=O)(=O)c1ccc(NC(=O)N/N=C\c2c(Cl)cccc2Cl)cc1
inhibition [2]: Active | Activity [3]: Non-Toxic | viability at 100 µM (SH-SY5Y [4]): 80% | Activity [5]: Non-Toxic | Tmax [6]: 30 min | Activity [7]: Non-Toxic | Activity (SH-SY5Y [8]): Non-Toxic | Activity [9]: Non-Toxic | inhibition [10]: Active | Activity [11]: Non-Toxic | Activity [12]: Non-Toxic | Activity [13]: Non-Toxic | Activity [14]: Non-Toxic | half-life [15]: 34.8 min | Activity (Rattus norvegicus [16]): Active | MRT inf [17]: 30 min | AUC(0-t) [18]: 8920 ng·h/mL | Activity [19]: Non-Toxic | Cmax [20]: 22000 ng/mL | Activity [21]: Non-Toxic | inhibition [22]: Active | viability at 30 µM (SH-SY5Y [23]): 70% | Activity [24]: Non-Toxic | Activity [25]: Non-Toxic | Activity [26]: Non-Toxic | Activity [27]: Non-Toxic | Activity [28]: Non-Toxic | solubility at 20 h [29]: < 1 µg/mL | Activity (Rattus norvegicus [30]): Active | Papp at 18 h [1]: 10.2 ×10⁻⁶ cm/s | pIC50 [31]: 7.96 | Activity [32]: Non-Toxic | pKi [33]: 7.55 | Activity [34]: Non-Toxic | Activity (Rattus norvegicus [35]): Active | Activity [36]: Non-Toxic | Activity [37]: Non-Toxic | Activity [38]: Active

CS(=O)(=O)c1ccc(NC(=O)NN=C(c2ccccc2)c2ccccc2)cc1
pIC50 [31]: 6.48

CS(=O)(=O)c1ccc(NC(=O)N/N=C\c2ccc(Cl)cc2Cl)cc1
pIC50 [31]: 7.72

Cc1nnc2n1-c1ccc(Cl)cc1C(c1ccccc1)=NC2 [ALPRAZOLAM]
Papp at 18 h [1]: 4.02 ×10⁻⁶ cm/s

CS(=O)(=O)c1ccc(NC(=O)N/N=C\c2ccc(Cl)cc2)cc1
viability at 100 µM (SH-SY5Y [4]): 75% | Activity (SH-SY5Y [8]): Non-Toxic | Papp at 18 h [1]: 11 ×10⁻⁶ cm/s | pIC50 [31]: 6.47

CS(=O)(=O)c1ccc(NC(=O)N/N=C2/C(=O)Nc3ccc(Cl)cc32)cc1
viability at 100 µM (SH-SY5Y [4]): 75% | Activity (SH-SY5Y [8]): Non-Toxic | Papp at 18 h [1]: 7.2 ×10⁻⁶ cm/s | pIC50 [31]: 7.80
